Results reported in ChEMBL document CHEMBL1201862, “PubChem BioAssay data set” (2004).
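Grown in 96-well plates, cells were treated for 48 hours with each compound at five concentrations. Insufficient inhibition: endpoint recorded as highest concentration tested. GI50 = concentration required for 50% inhibition of growth.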 Calls of active or inactive are those of the source. Cut-off read from the data, not from the text of the source: active = GI50 up to about 1.1 µM and inactive = higher.

Tests used:
Assay in all cases: NCI tumour cell line growth inhibition, 48 h
[1] = tested on: A498
[2] = tested on: NCI-H23
[3] = tested on: UO-31
[4] = tested on: DMS-273
[5] = tested on: SK-MEL-2
[6] = tested on: RXF 393
[7] = tested on: ACHN
[8] = tested on: OVCAR-4
[9] = tested on: HCT-116
[10] = tested on: HL-60
[11] = tested on: HT-29
[12] = tested on: NCI-H460
[13] = tested on: K562
[14] = tested on: SF-268
[15] = tested on: HOP-18
[16] = tested on: SNB-78
[17] = tested on: Malme-3M
[18] = tested on: COLO 205
[19] = tested on: SN12C
[20] = tested on: MOLT-4
[21] = tested on: M14
[22] = tested on: U-251
[23] = tested on: LOX IMVI
[24] = tested on: DMS-114
[25] = tested on: KM12
[26] = tested on: OVCAR-3
[27] = tested on: DLD-1
[28] = tested on: HCT-15
[29] = tested on: SK-MEL-5
[30] = tested on: 786-0
[31] = tested on: SNB-75
[32] = tested on: LXFL 529
[33] = tested on: TK-10
[34] = tested on: NCI-H226
[35] = tested on: UACC-257
[36] = tested on: CCRF-CEM
[37] = tested on: A549
[38] = tested on: KM-20L2
[39] = tested on: HCC 2998
[40] = tested on: SK-MEL-28
[41] = tested on: HOP-62
[42] = tested on: OVCAR-8
[43] = tested on: SF-295
[44] = tested on: IGROV-1
[45] = tested on: SW-620
[46] = tested on: SK-OV-3
[47] = tested on: M19-MEL
[48] = tested on: SF-539
[49] = tested on: SNB-19
[50] = tested on: CAKI-1
[51] = tested on: NCI-H522
[52] = tested on: OVCAR-5
[53] = tested on: EKVX
[54] = tested on: RPMI-8226
[55] = tested on: SR
[56] = tested on: UACC-62
[57] = tested on: XF498
[58] = tested on: HOP-92

In the case of `CC(=O)Nc1ccc(-c2nnc(SCC(=O)Nc3ccccc3Cl)o2)cc1`, the GI50 [1] is reported as > 100 µM (inactive), the GI50 [2] is reported as > 100 µM (inactive) and the GI50 [3] is reported as > 100 µM (inactive). The GI50 [4] was > 100 µM (inactive), the GI50 [5] was > 100 µM (inactive) and the GI50 [6] was > 100 µM (inactive). For the same molecule, the GI50 [7] was > 100 µM (inactive), the GI50 [8] was > 100 µM (inactive) and the GI50 [9] was 44.1 µM (inactive). For the same molecule, the GI50 [10] was > 100 µM (inactive), the GI50 [11] was 80.4 µM (inactive) and the GI50 [12] was > 100 µM (inactive). For the same molecule, the GI50 [13] was > 100 µM (inactive), the GI50 [14] was > 100 µM (inactive) and the GI50 [15] was 87.7 µM (inactive). The GI50 [16] was > 100 µM (inactive), the GI50 [17] was > 100 µM (inactive) and the GI50 [18] was > 100 µM (inactive). For the same molecule, the GI50 [19] was > 100 µM (inactive), the GI50 [20] was > 100 µM (inactive) and the GI50 [21] was > 100 µM (inactive). For the same molecule, the GI50 [22] was > 100 µM (inactive), the GI50 [23] was > 100 µM (inactive) and the GI50 [24] was > 100 µM (inactive). For the same molecule, the GI50 [25] was > 100 µM (inactive), the GI50 [26] was 93.1 µM (inactive) and the GI50 [27] was > 100 µM (inactive). For the same molecule, the GI50 [28] was greater than 100 µM, the GI50 [29] was > 100 µM (inactive) and the GI50 [30] was > 100 µM (inactive). The GI50 [31] was > 100 µM (inactive), the GI50 [32] was > 100 µM (inactive) and the GI50 [33] was > 100 µM (inactive). The GI50 [34] was > 100 µM (inactive), the GI50 [35] was > 100 µM (inactive) and the GI50 [36] was > 100 µM (inactive). For the same molecule, the GI50 [37] was > 100 µM (inactive), the GI50 [38] was > 100 µM (inactive) and the GI50 [39] was > 100 µM (inactive). For the same molecule, the GI50 [40] was > 100 µM (inactive), the GI50 [41] was > 100 µM (inactive) and the GI50 [42] was > 100 µM (inactive). For the same molecule, the GI50 [43] was > 100 µM (inactive), the GI50 [44] was > 100 µM (inactive) and the GI50 [45] was > 100 µM (inactive). The GI50 [46] was > 100 µM (inactive), the GI50 [47] was > 100 µM (inactive) and the GI50 [48] was > 100 µM (inactive). The GI50 [49] was > 100 µM (inactive), the GI50 [50] was > 100 µM (inactive) and the GI50 [51] was > 100 µM (inactive). For the same molecule, the GI50 [52] was > 100 µM (inactive).

`CN(C)CC/C(=N\Nc1ccc(Cl)cc1)c1ccccc1` was tested, and the GI50 [1] was 3.64 µM (inactive), the GI50 [2] was 1.95 µM (inactive) and the GI50 [3] was 0.25 µM (active). The GI50 [4] was 0.366 µM (active), the GI50 [5] was 1.86 µM (inactive) and the GI50 [6] was 2.57 µM (inactive). The GI50 [7] was 0.478 µM (active), the GI50 [8] was 1.77 µM (inactive) and the GI50 [9] was 1.18 µM (inactive). For the same molecule, the GI50 [10] was 0.369 µM (active), the GI50 [11] was 1.28 µM (inactive) and the GI50 [12] was 1.1 µM (active). The GI50 [13] was 0.327 µM (active), the GI50 [14] was 0.566 µM (active) and the GI50 [15] was 2.13 µM (inactive). The GI50 [16] was 1.38 µM (inactive), the GI50 [17] was 1.98 µM (inactive) and the GI50 [18] was 1.75 µM (inactive). The GI50 [19] was 1.58 µM (inactive), the GI50 [20] was 0.403 µM (active) and the GI50 [21] was 1.67 µM (inactive). For the same molecule, the GI50 [22] was 0.513 µM (active), the GI50 [23] was 0.256 µM (active) and the GI50 [24] was 0.933 µM (active). For the same molecule, the GI50 [25] was 0.589 µM (active), the GI50 [26] was 1.51 µM (inactive) and the GI50 [27] was 0.409 µM (active). The GI50 [53] was 1.36 µM (inactive), the GI50 [28] was 0.327 µM and the GI50 [29] was 1.7 µM (inactive). The GI50 [30] was 1.26 µM (inactive), the GI50 [54] was 0.64 µM (active) and the GI50 [31] was 2.15 µM (inactive). The GI50 [32] was 0.182 µM (active), the GI50 [33] was 0.593 µM (active) and the GI50 [35] was 1.64 µM (inactive). For the same molecule, the GI50 [36] was 0.417 µM (active), the GI50 [37] was 1.47 µM (inactive) and the GI50 [38] was 0.176 µM (active). For the same molecule, the GI50 [40] was 1.52 µM (inactive), the GI50 [55] was 0.415 µM (active) and the GI50 [41] was 1.68 µM (inactive). The GI50 [42] was 2.24 µM (inactive), the GI50 [43] was 0.374 µM (active) and the GI50 [56] was 0.556 µM (active). The GI50 [44] was 1.28 µM (inactive), the GI50 [45] was 0.431 µM (active) and the GI50 [46] was 2.22 µM (inactive). The GI50 [47] was 1.7 µM (inactive), the GI50 [48] was 1.92 µM (inactive) and the GI50 [49] was 2.43 µM (inactive). For the same molecule, the GI50 [51] was 1.32 µM (inactive) and the GI50 [52] was 1.24 µM (inactive).

With `COc1cc(C2C(Cl)C(=O)N2NC(=O)c2ccc(N)cc2)cc(Br)c1O` (stereo not given) the GI50 [57] was 17 µM (inactive), the GI50 [1] was 37.2 µM (inactive) and the GI50 [2] was 16.4 µM (inactive). For the same molecule, the GI50 [3] was 17.8 µM (inactive), the GI50 [4] was 18 µM (inactive) and the GI50 [5] was 17 µM (inactive). For the same molecule, the GI50 [7] was 19.2 µM (inactive), the GI50 [8] was 14.8 µM (inactive) and the GI50 [9] was 10.4 µM (inactive). The GI50 [10] was 8.75 µM (inactive), the GI50 [11] was 19.8 µM (inactive) and the GI50 [12] was 16.6 µM (inactive). For the same molecule, the GI50 [13] was 10.2 µM (inactive), the GI50 [14] was 4.19 µM (inactive) and the GI50 [16] was 17.5 µM (inactive). The GI50 [17] was 14.5 µM (inactive), the GI50 [18] was 18.7 µM (inactive) and the GI50 [19] was 17 µM (inactive). For the same molecule, the GI50 [20] was 4.23 µM (inactive), the GI50 [21] was 15.5 µM (inactive) and the GI50 [22] was 3.31 µM (inactive). For the same molecule, the GI50 [23] was 2.75 µM (inactive), the GI50 [58] was 23 µM (inactive) and the GI50 [24] was 6.35 µM (inactive). For the same molecule, the GI50 [25] was 16 µM (inactive), the GI50 [26] was 8.38 µM (inactive) and the GI50 [27] was 19 µM (inactive). For the same molecule, the GI50 [53] was 13.2 µM (inactive), the GI50 [28] was 15 µM and the GI50 [29] was 17.9 µM (inactive). The GI50 [30] was 13.3 µM (inactive), the GI50 [54] was 24.4 µM (inactive) and the GI50 [31] was 17.2 µM (inactive). The GI50 [32] was 3.15 µM (inactive), the GI50 [33] was 18.5 µM (inactive) and the GI50 [34] was 21.5 µM (inactive). The GI50 [35] was 19 µM (inactive), the GI50 [36] was 2.92 µM (inactive) and the GI50 [37] was 21.5 µM (inactive). For the same molecule, the GI50 [38] was 17.7 µM (inactive), the GI50 [39] was 12 µM (inactive) and the GI50 [40] was 16.2 µM (inactive). For the same molecule, the GI50 [41] was 15.1 µM (inactive), the GI50 [42] was 28.4 µM (inactive) and the GI50 [43] was 14.6 µM (inactive). For the same molecule, the GI50 [56] was 14 µM (inactive), the GI50 [44] was 19.7 µM (inactive) and the GI50 [45] was 15.2 µM (inactive). For the same molecule, the GI50 [46] was 28.5 µM (inactive), the GI50 [47] was 17.9 µM (inactive) and the GI50 [48] was 19.5 µM (inactive). For the same molecule, the GI50 [49] was 11.7 µM (inactive), the GI50 [50] was 16.8 µM (inactive) and the GI50 [51] was 1.92 µM (inactive). The GI50 [52] was 19.4 µM (inactive).
